Counter-ions that a name gives are not always drawn.
tested on: recombinant guanylate cyclase reporter cell line; experiment: Effect on a recombinant guanylate cyclase reporter cell line; format: cell-based; details: in some cases mean values from individual determinations, read-out: MEC (minimum effective concentration)
Protocol: B-2. Effect on a Recombinant Guanylate Cyclase Reporter Cell Line
The cellular activity of the compounds according to the invention is determined using a recombinant guanylate cyclase reporter cell line, as described in F. Wunder et al., Anal. Biochem. 339, 104-112 (2005).
Representative MEC values (MEC=minimum effective concentration) for the compounds of the invention are shown in the table below (in some cases as mean values from individual determinations): […]

Row | Compound | minimal effective concentration [µM]
1 | Cc1nc2c(OCc3c(F)cccc3F)cccn2c1-c1nc(Cl)nc(NCC(C)(C)N)n1 [Example 11, N′-(4-Chloro-6-{8-[(2,6-difluorobenzyl)oxy]-2-methylimidazo[1,2-a]pyridin-3-yl}-1,3,5-triazin-2-yl)-2-methylpropane-1,2-diamine] | 0.3
2 | CC(=O)Nc1cccc(-c2c(C)nc3c(OCc4ncccc4F)cc(Cl)cn23)c1 [Example 20, N-(3-{6-Chloro-8-[(3-fluoropyridin-2-yl)methoxy]-2-methylimidazo[1,2-a]pyridin-3-yl}phenyl)acetamide] | 0.3
3 | Cc1nc2c(OCc3c(F)cccc3F)cccn2c1-c1ccc(NCc2ccccc2)nc1 [Example 1, N-Benzyl-5-{8-[(2,6-difluorobenzyl)oxy]-2-methylimidazo[1,2-a]pyridin-3-yl}pyridine-2-amine] | 0.1
4 | Cc1nc2c(OCc3c(F)cccc3F)cccn2c1-c1cnc(N2CCN(C)CC2)nc1 [Example 6, 8-[(2,6-Difluorobenzyl)oxy]-2-methyl-3-[2-(4-methylpiperazin-1-yl)pyrimidin-5-yl]imidazo[1,2-a]pyridine] | 10
5 | CCN(C)c1ccc(-c2c(C)nc3c(OCc4c(F)cccc4F)cccn23)cn1 [Example 3] | 0.2
6 | COCCNc1ccc(-c2c(C)nc3c(OCc4c(F)cccc4F)cccn23)cn1 [Example 2] | 0.1
7 | CCCNc1nc(N)nc(-c2c(C)nc3c(OCc4c(F)cccc4F)cc(C)cn23)n1 [Example 9, 6-{8-[(2,6-Difluorobenzyl)oxy]-2,6-dimethylimidazo[1,2-a]pyridin-3-yl}-N-propyl-1,3,5-triazine-2,4-diamine] | 0.3
8 | CC(=O)Nc1cccc(-c2c(C)nc3c(OCc4c(F)cccc4F)cc(C)cn23)c1 [Example 15, N-(3-{8-[(2,6-Difluorobenzyl)oxy]-2,6-dimethylimidazo[1,2-a]pyridin-3-yl}phenyl)acetamide] | 0.02
9 | Cc1cc(OCc2c(F)cccc2F)c2nc(C)c(-c3cccc(N4CCCC4)c3)n2c1 [Example 14, 8-[(2,6-Difluorobenzyl)oxy]-2,6-dimethyl-3-[3-(pyrrolidin-1-yl)phenyl]imidazo[1,2-a]pyridine] | 6.5
10 | Cc1nc2c(OCc3c(F)cccc3F)cccn2c1-c1ccc(N2CC(C)OC(C)C2)nc1 (stereo not drawn) [Example 4] | 1
11 | Cc1nc2c(OCc3c(F)cccc3F)cccn2c1-c1ccc(Nc2ccccc2)nc1 [Example 5] | 3
12 | Cc1cc(OCc2c(F)cccc2F)c2nc(C)c(-c3cc(NCC(C)(C)N)ncc3F)n2c1 [Example 10, N′-(4-{8-[(2,6-Difluorobenzyl)oxy]-2,6-dimethylimidazo[1,2-a]pyridin-3-yl}-5-fluoropyridin-2-yl)-2-methylpropane-1,2-diamine] | 0.1
13 | Cc1cc(OCc2c(F)ccc(F)c2F)c2nc(C)c(-c3nccc(N4CCCC4)n3)n2c1 [Example 16, 2,6-Dimethyl-3-[4-(pyrrolidin-1-yl)pyrimidin-2-yl]-8-[(2,3,6-trifluorobenzyl)oxy]imidazo[1,2-a]pyridine trifluoroacetate] | 3
14 | Cc1cc(OCc2c(F)cccc2F)c2nc(C)c(-c3ccnc(N4CCNCC4)c3)n2c1 [Example 13, 8-[(2,6-Difluorobenzyl)oxy]-2,6-dimethyl-3-[2-(piperazin-1-yl)pyridin-4-yl]imidazo[1,2-a]pyridine] | 0.2
15 | Cc1nc2c(OCc3c(F)cccc3F)cccn2c1-c1ncnc(NCC(C)(N)CCC(F)(F)F)n1 (single isomer, unassigned; enantiomer b) [Example 12, ent-N^1-(4-{8-[(2,6-Difluorobenzyl)oxy]-2-methylimidazo[1,2-a]pyridin-3-yl}-1,3,5-triazin-2-yl)-5,5,5-trifluoro-2-methylpentane-1,2-diamine (enantiomer B)] | 1
16 | Cc1cc(OCc2c(F)cccc2F)c2nc(C)c(-c3nc(N)nc(N(C)C)n3)n2c1 [Example 8, 6-{8-[(2,6-Difluorobenzyl)oxy]-2,6-dimethylimidazo[1,2-a]pyridin-3-yl}-N, N-dimethyl-1,3,5-triazine-2,4-diamine] | 0.3
17 | CC(=O)Nc1cccc(-c2c(C)nc3c(OCC4CCCCC4)cccn23)c1 [Example 19, N-{3-[8-(Cyclohexylmethoxy)-2-methylimidazo[1,2-a]pyridin-3-yl]phenyl}acetamide] | 0.2
18 | Cc1cc(OCc2c(F)cccc2F)c2nc(C)c(-c3nc(N)nc(N)n3)n2c1 [Example 7, 6-{8-[(2,6-Difluorobenzyl)oxy]-2,6-dimethylimidazo[1,2-a]pyridin-3-yl}-1,3,5-triazine-2,4-diamine] | 0.3

From patent publication US10292970B2, “Heteroaryl-substituted imidazo[1,2-A]pyridines and their use” (BAYER PHARMA AKTIENGESELLSCHAFT, priority 2014, dated 2019)
